Assay results reported in paper PMC8237267 (Journal of Medicinal Chemistry, 2021).
pIC50: −log10 of the molar value. “And” between values parts separate entries of the source, which are not always exact repeats. Equal entries are not always repeated. Where two headings read alike, the source gives them in different places.

Columns and labels:
[1] = target: T1, HDAC11 (Homo sapiens, UniProt Q96DB2); test: HDAC EMSA activity assay (Nanosyn); format: biochemical; conditions: recombinant enzyme, read-out: In vitro IC50 HDAC11
T1 construct: The full-length human HDACs were recombinantly expressed and purified from SF9 insect cells; host or cells: SF9 insect cells
T1 sequence (Q96DB2 1-347): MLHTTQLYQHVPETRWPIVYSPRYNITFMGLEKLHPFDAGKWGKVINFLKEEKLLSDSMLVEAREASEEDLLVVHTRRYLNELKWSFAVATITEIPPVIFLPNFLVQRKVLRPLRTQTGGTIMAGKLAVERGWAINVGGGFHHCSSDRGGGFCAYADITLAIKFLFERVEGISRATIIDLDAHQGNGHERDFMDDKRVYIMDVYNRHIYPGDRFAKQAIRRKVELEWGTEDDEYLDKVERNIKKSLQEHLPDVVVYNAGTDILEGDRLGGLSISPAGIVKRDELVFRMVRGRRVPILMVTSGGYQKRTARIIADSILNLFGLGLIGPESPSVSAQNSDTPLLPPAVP

[2] = target: T2, HDAC3 (Homo sapiens, UniProt O15379); test: HDAC EMSA activity assay (Nanosyn); format: biochemical; conditions: recombinant enzyme, read-out: In vitro IC50 HDAC3
T2 construct: The full-length human HDACs were recombinantly expressed and purified from SF9 insect cells; host or cells: SF9 insect cells

[3] = test system: MRC-9; test: Cytotoxicity assay (Cell Titer-Blue, 72 h); format: cell-based
[4] = target: T3, HDAC8 (Homo sapiens, UniProt Q9BY41); test: HDAC EMSA activity assay (Nanosyn); format: biochemical; conditions: for pIC50: recombinant enzyme, EMSA (Nanosyn), read-out: In vitro IC50 HDAC8
T3 construct: The full-length human HDACs were recombinantly expressed and purified from SF9 insect cells; host or cells: SF9 insect cells
T3 sequence (Q9BY41 1-377): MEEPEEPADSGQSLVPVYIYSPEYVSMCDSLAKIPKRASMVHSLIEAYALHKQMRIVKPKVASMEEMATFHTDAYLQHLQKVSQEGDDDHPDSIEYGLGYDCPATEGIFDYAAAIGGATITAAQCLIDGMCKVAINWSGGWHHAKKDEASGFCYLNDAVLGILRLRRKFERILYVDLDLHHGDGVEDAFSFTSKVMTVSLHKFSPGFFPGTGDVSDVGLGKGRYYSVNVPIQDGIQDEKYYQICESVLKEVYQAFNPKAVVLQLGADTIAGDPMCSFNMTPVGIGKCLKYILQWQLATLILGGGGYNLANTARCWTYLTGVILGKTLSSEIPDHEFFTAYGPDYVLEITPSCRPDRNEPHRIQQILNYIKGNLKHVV

[5] = target: T4, HDAC6 (Homo sapiens, UniProt Q9UBN7); test: HDAC EMSA activity assay (Nanosyn); format: biochemical; design: The full-length human HDACs were recombinantly expressed and purified from SF9 insect cells; host or cells: SF9 insect cells; conditions: for pIC50: EMSA (Nanosyn); for HDAC6 fold-selectivity: over the next closest HDAC isoform tested, * = selectivity ≥ indicated value
T4 sequence (Q9UBN7 1-1215): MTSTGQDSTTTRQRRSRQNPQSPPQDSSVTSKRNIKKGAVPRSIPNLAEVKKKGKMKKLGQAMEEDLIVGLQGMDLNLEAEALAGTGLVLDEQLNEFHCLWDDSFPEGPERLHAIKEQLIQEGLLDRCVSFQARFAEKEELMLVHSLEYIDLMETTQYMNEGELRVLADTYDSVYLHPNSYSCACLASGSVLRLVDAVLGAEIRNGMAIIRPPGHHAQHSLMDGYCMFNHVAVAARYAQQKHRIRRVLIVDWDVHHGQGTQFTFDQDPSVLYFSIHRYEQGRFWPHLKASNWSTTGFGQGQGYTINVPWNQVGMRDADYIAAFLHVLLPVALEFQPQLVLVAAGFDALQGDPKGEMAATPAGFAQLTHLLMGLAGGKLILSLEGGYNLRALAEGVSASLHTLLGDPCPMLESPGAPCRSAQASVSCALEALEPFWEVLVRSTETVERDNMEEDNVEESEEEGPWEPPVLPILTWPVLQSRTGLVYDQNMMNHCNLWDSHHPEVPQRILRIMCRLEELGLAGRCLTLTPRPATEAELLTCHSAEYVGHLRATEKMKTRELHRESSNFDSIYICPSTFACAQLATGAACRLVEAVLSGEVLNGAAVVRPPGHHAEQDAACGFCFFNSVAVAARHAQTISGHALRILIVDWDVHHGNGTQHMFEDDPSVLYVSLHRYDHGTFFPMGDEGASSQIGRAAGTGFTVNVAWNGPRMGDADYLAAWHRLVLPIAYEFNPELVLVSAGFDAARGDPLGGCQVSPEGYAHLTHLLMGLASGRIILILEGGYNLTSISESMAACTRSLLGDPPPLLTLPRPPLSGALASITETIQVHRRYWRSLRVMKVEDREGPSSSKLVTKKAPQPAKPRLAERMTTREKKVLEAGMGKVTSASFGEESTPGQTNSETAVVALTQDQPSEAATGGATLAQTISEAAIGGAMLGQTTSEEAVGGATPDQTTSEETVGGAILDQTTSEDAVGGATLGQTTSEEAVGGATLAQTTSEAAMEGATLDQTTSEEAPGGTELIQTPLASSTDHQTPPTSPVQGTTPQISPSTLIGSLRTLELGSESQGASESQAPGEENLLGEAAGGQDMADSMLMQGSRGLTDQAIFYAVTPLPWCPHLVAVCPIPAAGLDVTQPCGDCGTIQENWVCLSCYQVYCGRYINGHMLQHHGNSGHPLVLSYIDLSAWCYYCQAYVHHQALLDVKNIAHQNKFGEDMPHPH

[6] = Glutathione stability / reactivity assay; format: in vitro ADME; conditions: GSH adduct formation by LC/MS/MS; KT-531 up to 24 h
Method: Although covalent modification of HDAC6 was not observed (Figure S2), the PFBS group is susceptible to nucleophilic aromatic substitution by biological nucleophiles. A previously described high-throughput in vitro glutathione-reactivity assay was conducted, where compounds were incubated in the presence of glutathione (GSH) and the formation of a GSH-compound adduct was monitored over time via LC/MS/MS.[50]
Compound was added to PBS and 5 mM GSH to reach a final concentration of 5 μM. […] Samples were vortexed and centrifuged for 45 min at 3220g. Aliquots were diluted by ultrapure water, and used for LC/MS/MS analysis. Peak area ratios were determined and percent compounds remaining was calculated by the following equation: [drawing 1] where peak area ratio (t min) is the peak area ratio of control and test compounds at t min; peak area ratio0min is the peak area ratio of control and test compounds at the zero time point. In vitro half-life (t1/2) = −(0.693/k).

[7] = test system: MV4-11; test: Cytotoxicity assay (Cell Titer-Blue, 72 h); format: cell-based; conditions: for pIC50: Homo sapiens
[8] = MRC9, MRC-9 (healthy fibroblasts), read-out: In cellulo IC50 MRC-9
[9] = recombinant enzyme, read-out: In vitro IC50 HDAC6
[10] = MV4-11 (AML), read-out: In cellulo IC50 MV4-11

T2 sequence (O15379 whole entry): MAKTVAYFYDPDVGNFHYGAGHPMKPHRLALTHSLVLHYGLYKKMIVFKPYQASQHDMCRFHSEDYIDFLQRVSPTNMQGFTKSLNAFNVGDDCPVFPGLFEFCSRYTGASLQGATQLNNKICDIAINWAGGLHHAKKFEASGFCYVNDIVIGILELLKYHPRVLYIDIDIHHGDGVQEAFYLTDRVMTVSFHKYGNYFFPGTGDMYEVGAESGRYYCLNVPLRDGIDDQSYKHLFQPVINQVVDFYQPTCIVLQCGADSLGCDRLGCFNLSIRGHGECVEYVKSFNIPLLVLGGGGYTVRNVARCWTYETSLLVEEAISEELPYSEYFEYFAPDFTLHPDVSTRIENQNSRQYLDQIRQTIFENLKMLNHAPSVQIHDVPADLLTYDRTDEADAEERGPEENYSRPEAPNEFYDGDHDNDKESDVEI
T2 sequence (Q9Y618 395-489 partner limits assumed): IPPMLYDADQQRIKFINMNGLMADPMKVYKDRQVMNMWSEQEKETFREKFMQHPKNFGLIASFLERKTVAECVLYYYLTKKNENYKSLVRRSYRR

Row | Compound | pIC50 [1] | pIC50 [2] | pIC50 [4] | pIC50 ([5]; read-out: IC50 HDAC6) | reactivity with glutathione [6] | pIC50 [5, 9] | HDAC6 fold-selectivity [5] | selectivity toward HDAC8 [4] | pIC50 [3, 8] | pIC50 [7, 10] | activity in MRC9 cells [3] | activity in MV4-11 cells [7] | pIC50 ([3]; MRC9, read-out: In cellulo IC50 MRC-9) | pIC50 ([7]; MV4-11, read-out: In cellulo IC50 MV4-11)
1 | O=C(NO)c1ccc(CN(C2CC2)S(=O)(=O)c2ccc(F)cc2)cc1 [Compound 7, 4-(((N-Cyclopropyl-4-fluorophenyl)sulfonamido)methyl)-N-hydroxybenzamide] | < 6.00 | 6.08 | 6.55 | – | – | 7.96 | 25.5 fold | – | < 4.30 | 5.06 | – | – | – | –
2 | O=C(NO)c1ccc(CN(C2CC2)S(=O)(=O)c2cc(F)c(F)c(F)c2)cc1 [Compound 8, 4-(((N-Cyclopropyl-3,4,5-trifluorophenyl)sulfonamido)methyl)-N-hydroxybenzamide] | < 6.00 | < 6.00 | 6.56 | – | – | 7.85 | 20 fold and 19.5 fold | – | < 4.60 | 5.22 | – | – | – | –
3 | O=C(NO)c1ccc(CN(C2CC2)S(=O)(=O)c2c(F)cc(F)cc2F)cc1 [Compound 9, 4-(((N-Cyclopropyl-2,4,6-trifluorophenyl)sulfonamido)methyl)-N-hydroxybenzamide] | < 6.00 | < 6.00 | 6.50 | – | – | 8.10 | 39.4 fold | – | < 4.70 | 5.05 | – | – | – | –
4 | O=C(NO)c1ccc(CN(C2CC2)S(=O)(=O)c2c(F)c(Cl)c(F)c(Cl)c2F)cc1 [Compound 11, 4-(((3,5-Dichloro-N-cyclopropyl-2,4,6-trifluorophenyl)sulfonamido)methyl)-N-hydroxybenzamide] | 6.44 | < 6.00 | 6.67 | – | – | 7.82 | 14.3 fold | – | < 4.30 | 6.17 | – | – | – | –
5 | O=C(NO)c1ccc(CN(C2CC2)S(=O)(=O)c2c(F)cc(F)c(Cl)c2F)cc1 [Compound 12, 4-(((3-Chloro-N-cyclopropyl-2,4,6-trifluorophenyl)sulfonamido)methyl)-N-hydroxybenzamide] | < 6.00 | < 6.00 | 6.70 | – | – | 8.05 | 22.3 fold | – | < 4.70 | 6.13 | – | – | – | –
6 | CCCCN(Cc1ccc(C(=O)NO)cc1)C(=O)Nc1ccccc1 [Nexturastat, reference compound] | – | – | – | – | – | – | – | – | – | 5.77 | – | – | – | –
7 | COc1ccc(Cn2ccc3ccc(C(=O)NO)cc32)cc1 [PCI-34051, reference compound] | – | – | – | – | – | – | – | – | – | – | no observable activity | no observable activity | – | –
8 | O=C(CCCCCCNC(=O)c1cnc(N(c2ccccc2)c2ccccc2)nc1)NO [Ricolinostat, reference compound] | – | – | – | – | – | – | – | – | – | – | – | – | < 4.70 | 6.09

More lines, main results first:

Row | pIC50 [1] | pIC50 [2] | pIC50 [4] | pIC50 ([5]; read-out: IC50 HDAC6) | reactivity with glutathione [6] | pIC50 [5, 9] | HDAC6 fold-selectivity [5] | selectivity toward HDAC8 [4] | Compound | pIC50 [3, 8] | pIC50 [7, 10] | activity in MRC9 cells [3] | activity in MV4-11 cells [7] | pIC50 ([3]; MRC9, read-out: In cellulo IC50 MRC-9) | pIC50 ([7]; MV4-11, read-out: In cellulo IC50 MV4-11)
9 | < 6.00 | < 6.00 | < 6.00 | 6.41 | – | – | – | – | O=C(NO)c1ccc(CNS(=O)(=O)c2c(F)c(F)c(F)c(F)c2F)cc1 [Compound 2, N-Hydroxy-4-(((perfluorophenyl)sulfonamido)methyl)benzamide] | < 4.60 | – | – | – | – | –
10 | 6.61 | – | 6.74 | – | react readily with glutathione | 8.70 | – | – | CN(Cc1ccc(C(=O)NO)cc1)S(=O)(=O)c1c(F)c(F)c(F)c(F)c1F [Compound 3, N-Hydroxy-4-(((2,3,4,5,6-pentafluoro-N-methylphenyl)sulfonamido)methyl)benzamide] | < 4.52 | – | – | – | – | –
11 | 6.03 | 6.03 | 6.19 | – | react readily with glutathione | 8.40 | – | – | CC(C)N(Cc1ccc(C(=O)NO)cc1)S(=O)(=O)c1c(F)c(F)c(F)c(F)c1F [Compound 4, N-Hydroxy-4-(((2,3,4,5,6-pentafluoro-N-isopropylphenyl)sulfonamido)methyl)benzamide] | < 5.00 | – | – | – | – | –
12 | < 6.00 | < 6.00 | 6.97 | – | – | 6.31 | – | 4 fold | O=C(NO)c1cccc(CN(C2CC2)S(=O)(=O)c2c(F)c(F)c(F)c(F)c2F)c1 [Compound 10, 3-(((N-Cyclopropyl-2,3,4,5,6-pentafluorophenyl)sulfonamido)methyl)-N-hydroxybenzamide] | < 4.30 | 5.72 | – | – | – | –
13 | < 6.00 | < 6.00 | < 6.00 | 7.15 | – | – | 14.3 fold and ≥ 14.3* fold | – | O=C(NO)c1ccc(CN(C2CC2)S(=O)(=O)c2c(F)c(F)c(Cl)c(F)c2F)cc1 [Compound 13, 4-(((4-Chloro-N-cyclopropyl-2,3,5,6-tetrafluorophenyl)sulfonamido)methyl)-N-hydroxybenzamide] | < 4.52 | 5.86 | – | – | – | –
